Structures can show the parent of a compound that is named as a salt.
Experiments:
MASP-2 (CCP1-CCP2-SP) = molecular target: T1, MASP-2 (CCP1-CCP2-SP) (Homo sapiens, UniProt O00187); assay: Enzymatic assay for MASP-2 inhibitory activity (fluorogenic substrate); type: biochemical
T1 construct: 15 μL of Enzyme MASP-2 (CCP1-CCP2-SP) in Assay Buffer
Outline: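 Fluorescence was normalized between no-enzyme and DMSO-only controls to derive % activity, with IC50 taken as equivalent to Ki except for tight-binding inhibitors. Reactions ran 20 min at room temperature in HEPES pH 7.4/NaCl/Tween 20 buffer, using the C2-derived fluorogenic substrate, before acetic acid stop.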

human α-thrombin = molecular target: T2, human α-thrombin (Homo sapiens, UniProt P00734); assay: Enzymatic assay for thrombin (fluorogenic peptide substrate Boc-VPR-AMC); type: biochemical
T2 construct: enzyme (human α-thrombin (BioPharm® Lab.)) in assay buffer; purchased BioPharm® Lab
Outline: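 Assay conditions kept the reaction linear in time, enzyme and substrate, so IC50 approximated Ki apart from tight- or slow-binding cases. Boc-VPR-AMC cleavage by human α-thrombin proceeded 20 min at room temperature in Hepes pH 7.4/NaCl/Tween 20 buffer, then was acid-quenched and read by fluorescence.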

T1 sequence (O00187 445-686 limits assumed): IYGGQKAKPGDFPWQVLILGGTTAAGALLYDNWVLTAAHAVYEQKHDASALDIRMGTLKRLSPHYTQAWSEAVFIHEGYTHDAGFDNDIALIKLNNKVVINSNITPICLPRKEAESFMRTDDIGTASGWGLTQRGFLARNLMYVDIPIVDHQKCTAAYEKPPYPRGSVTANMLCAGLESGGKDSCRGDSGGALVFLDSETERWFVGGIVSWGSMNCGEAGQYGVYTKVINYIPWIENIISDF
T1 sequence (O00187 287-444 partner limits assumed): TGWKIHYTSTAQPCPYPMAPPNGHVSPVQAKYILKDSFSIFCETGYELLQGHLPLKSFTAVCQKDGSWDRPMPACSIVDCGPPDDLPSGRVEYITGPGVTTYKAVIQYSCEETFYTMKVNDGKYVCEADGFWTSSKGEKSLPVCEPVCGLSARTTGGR

SMILES	Ki (MASP-2 (CCP1-CCP2-SP))	Ki (human α-thrombin)
Cc1nc(N)ccc1CNC(=O)[C@@H]1CCc2c(Cl)nc(NCc3cccc(S(C)(=O)=O)c3)c(=O)n21 [Compound 98, (S)—N-((6-amino-2-methylpyridin-3-yl)methyl)-1-chloro-3-((3-(methylsulfonyl)benzyl)amino)-4-oxo-4,6,7,8-tetrahydropyrrolo[1,2-a]pyrazine-6-carboxamide trifluoroacetate]	< 500 nM	500 to 2500 nM
Cc1nc(N)ccc1CNC(=O)[C@@H]1CCc2cnc(NCc3cccc(S(C)(=O)=O)c3)c(=O)n21 [Compound 99, (S)—N-((6-amino-2-methylpyridin-3-yl)methyl)-3-((3-(methylsulfonyl)benzyl)amino)-4-oxo-4,6,7,8-tetrahydropyrrolo[1,2-a]pyrazine-6-carboxamide trifluoroacetate]	< 500 nM	< 500 nM
O=C(NCc1cc2cnccc2[nH]1)[C@@H]1CCc2c(Cl)nc(NC3CCC3)c(=O)n21 [Compound 100, (S)—N-((1H-pyrrolo[3,2-c]pyridin-2-yl)methyl)-1-chloro-3-(cyclobutylamino)-4-oxo-4,6,7,8-tetrahydropyrrolo[1,2-a]pyrazine-6-carboxamide trifluoroacetate]	< 500 nM	> 25000 nM
O=C(NCc1cc2cnccc2[nH]1)[C@@H]1CCc2c(Cl)nc(NCC3CCOCC3)c(=O)n21 [Compound 101, trifluoroacetate]	< 500 nM	> 25000 nM
O=C(NCc1cc2cnccc2[nH]1)[C@@H]1CCc2cnc(NCc3ccccc3)c(=O)n21 [Compound 102, (S)—N-((1H-pyrrolo[3,2-c]pyridin-2-yl)methyl)-3-(benzylamino)-4-oxo-4,6,7,8-tetrahydropyrrolo[1,2-a]pyrazine-6-carboxamide]	< 500 nM	500 to 2500 nM
Cc1cc2[nH]c(CNC(=O)[C@@H]3CCc4cnc(NCc5ccccc5)c(=O)n43)cc2cn1 [Compound 103, (S)-3-(benzylamino)-N-((6-methyl-1H-pyrrolo[3,2-c]pyridin-2-yl)methyl)-4-oxo-4,6,7,8-tetrahydropyrrolo[1,2-a]pyrazine-6-carboxamide]	< 500 nM	> 25000 nM
Cc1nc(N)ccc1CNC(=O)[C@@H]1CCc2cnc(NCc3ccccc3)c(=O)n21 [Compound 104, (S)-N-((6-amino-2-methylpyridin-3-yl)methyl)-3-(benzylamino)-4-oxo-4,6,7,8-tetrahydropyrrolo[1,2-a]pyrazine-6-carboxamide]	< 500 nM	< 500 nM
O=C(NCc1cc2cnccc2[nH]1)[C@@H]1CCc2c(Cl)nc(NCc3ccccc3)c(=O)n21 [Compound 105, (S)—N-((1H-pyrrolo[3,2-c]pyridin-2-yl)methyl)-3-(benzylamino)-1-chloro-4-oxo-4,6,7,8-tetrahydropyrrolo[1,2-a]pyrazine-6-carboxamide]	< 500 nM	10000 to 25000 nM
O=C(NCc1cc2cnccc2[nH]1)[C@@H]1CCc2c(Cl)nc(NC3(c4ccccc4)CC3)c(=O)n21 [Compound 106, (S)-N-((1H-pyrrolo[3,2-c]pyridin-2-yl)methyl)-1-chloro-4-oxo-3-((1-phenylcyclopropyl)amino)-4,6,7,8-tetrahydropyrrolo[1,2-a]pyrazine-6-carboxamide]	< 500 nM	2500 to 10000 nM
O=C(NCc1cc(Cl)ccc1-n1cnnn1)[C@@H]1CCc2c(Cl)nc(NCc3ccccc3)c(=O)n21 [Compound 107, (S)-3-(benzylamino)-1-chloro-N-(5-chloro-2-(1H-tetrazol-1-yl)benzyl)-4-oxo-4,6,7,8-tetrahydropyrrolo[1,2-a]pyrazine-6-carboxamide]	500 to 2500 nM	< 500 nM
Cc1cc(C)cc(CNc2ncc3n(c2=O)[C@H](C(=O)NCc2cnc4c(c2)CNC4)CC3)c1 [Compound 108, (S)—N-((6,7-dihydro-5H-pyrrolo[3,4-b]pyridin-3-yl)methyl)-3-((3,5-dimethylbenzyl)amino)-4-oxo-4,6,7,8-tetrahydropyrrolo[1,2-a]pyrazine-6-carboxamide]	< 500 nM	10000 to 25000 nM
Cc1cc(C)cc(CNc2ncc3n(c2=O)[C@H](C(=O)NCc2ccc(CN)nc2)CC3)c1 [Compound 109, (S)-N-((6-(aminomethyl)pyridin-3-yl)methyl)-3-((3,5-dimethylbenzyl)amino)-4-oxo-4,6,7,8-tetrahydropyrrolo[1,2-a]pyrazine-6-carboxamide trifluoroacetate]	< 500 nM	2500 to 10000 nM
Cc1cccc(C2(Nc3nc(Cl)c4n(c3=O)[C@H](C(=O)NCc3cc5cnccc5[nH]3)CC4)CC2)c1 [Compound 110, (S)—N-((1H-pyrrolo[3,2-c]pyridin-2-yl)methyl)-1-chloro-4-oxo-3-((1-(m-tolyl)cyclopropyl)amino)-4,6,7,8-tetrahydropyrrolo[1,2-a]pyrazine-6-carboxamide trifluoroacetate]	< 500 nM	2500 to 10000 nM
Cc1cccc(C2(Nc3ncc4n(c3=O)[C@H](C(=O)NCc3cc5cnccc5[nH]3)CC4)CC2)c1 [Compound 111, (S)—N-((1H-pyrrolo[3,2-c]pyridin-2-yl)methyl)-4-oxo-3-((1-(m-tolyl)cyclopropyl)amino)-4,6,7,8-tetrahydropyrrolo[1,2-a]pyrazine-6-carboxamide trifluoroacetate]	< 500 nM	2500 to 10000 nM
O=C(NCc1cc2cnccc2[nH]1)[C@@H]1CCc2c(Cl)nc(NCC3CCCCC3)c(=O)n21 [Compound 112, (S)-N-((1H-pyrrolo[3,2-c]pyridin-2-yl)methyl)-1-chloro-3-((cyclohexylmethyl)amino)-4-oxo-4,6,7,8-tetrahydropyrrolo[1,2-alpyrazine-6-carboxamide trifluoroacetate]	< 500 nM	> 25000 nM
O=C(NCc1cc2cnccc2[nH]1)[C@@H]1CCc2cnc(NCC3CCCCC3)c(=O)n21 [Compound 113, (S)-N-((1H-pyrrolo[3,2-c]pyridin-2-yl)methyl)-3-((cyclohexylmethyl)amino)-4-oxo-4,6,7,8-tetrahydropyrrolo[1,2-alpyrazine-6-carboxamide trifluoroacetate]	< 500 nM	2500 to 10000 nM
Cc1cccc(CNc2nc(Cl)c3n(c2=O)[C@H](C(=O)NCc2cc4cnccc4[nH]2)CC3)c1 [Compound 114, (S)-N-((1H-pyrrolo[3,2-c]pyridin-2-yl)methyl)-1-chloro-3-((3-methylbenzyl)amino)-4-oxo-4,6,7,8-tetrahydropyrrolo[1,2-a]pyrazine-6-carboxamide trifluoroacetate]	< 500 nM	2500 to 10000 nM
Cc1cccc(CNc2ncc3n(c2=O)[C@H](C(=O)NCc2cc4cnccc4[nH]2)CC3)c1 [Compound 115, (S)-N-((1H-pyrrolo[3,2-c]pyridin-2-yl)methyl)-3-((3-methylbenzyl)amino)-4-oxo-4,6,7,8-tetrahydropyrrolo[1,2-a]pyrazine-6-carboxamide trifluoroacetate]	< 500 nM	500 to 2500 nM
Cc1nc(N)ccc1CNC(=O)[C@@H]1CCc2cnc(NCC3CCOCC3)c(=O)n21 [Compound 116, (S)—N-((6-amino-2-methylpyridin-3-yl)methyl)-4-oxo-3-(((tetrahydro-2H-pyran-4-yl)methyl)amino)-4,6,7,8-tetrahydropyrrolo[1,2-a]pyrazine-6-carboxamide]	< 500 nM	500 to 2500 nM
O=C(NCc1cc2cnccc2[nH]1)[C@@H]1CCc2cnc(NCc3cccc(C(F)(F)F)c3)c(=O)n21 [Compound 117, (S)-N-((1H-pyrrolo[3,2-c]pyridin-2-yl)methyl)-4-oxo-3-((3-(trifluoromethyl)benzyl)amino)-4,6,7,8-tetrahydropyrrolo[1,2-a]pyrazine-6-carboxamide trifluoroacetate]	< 500 nM	2500 to 10000 nM
Cc1nc(N)ccc1CNC(=O)[C@@H]1CCc2c(Cl)nc(NCC3CCOC3)c(=O)n21 (stereo partly drawn) [Compound 118, (6S)—N-((6-amino-2-methylpyridin-3-yl)methyl)-1-chloro-4-oxo-3-(((tetrahydrofuran-3-yl)methyl)amino)-4,6,7,8-tetrahydropyrrolo[1,2-a]pyrazine-6-carboxamide]	< 500 nM	10000 to 25000 nM
O=C(NCc1cc2c(s1)CNC2)[C@@H]1CCc2cnc(N3CC(c4ccccc4)C3)c(=O)n21 [Compound 119, (S)—N-((5,6-dihydro-4H-thieno[2,3-c]pyrrol-2-yl)methyl)-4-oxo-3-(3-phenylazetidin-1-yl)-4,6,7,8-tetrahydropyrrolo[1,2-a]pyrazine-6-carboxamide]	2500 to 10000 nM	> 25000 nM
N#Cc1nc(NCc2ccccc2)c(=O)n2c1CC[C@H]2C(=O)NCc1cc2cnccc2[nH]1 [Compound 121, (S)—N-((1H-pyrrolo[3,2-c]pyridin-2-yl)methyl)-3-(benzylamino)-1-cyano-4-oxo-4,6,7,8-tetrahydropyrrolo[1,2-a]pyrazine-6-carboxamide trifluoroacetate]	< 500 nM	10000 to 25000 nM
Cc1cc(C)cc(CNc2ncc3n(c2=O)[C@H](C(=O)NCc2ccc(N)nc2C)CC32CC2)c1 [Compound 122, (S)—N-((6-amino-2-methylpyridin-3-yl)methyl)-3′-((3,5-dimethylbenzyl)amino)-4′-oxo-6′,7′-dihydro-4′H-spiro[cyclopropane-1,8′-pyrrolo[1,2-a]pyrazine]-6′-carboxamide trifluoroacetate]	< 500 nM	< 500 nM
Cc1cc(C)cc(CNc2ncc3n(c2=O)[C@H](C(=O)NCc2cc4cnccc4[nH]2)CC32CC2)c1 [Compound 123, (S)-N-((1H-pyrrolo[3,2-c]pyridin-2-yl)methyl)-3′-((3,5-dimethylbenzyl)amino)-4′-oxo-6′,7′-dihydro-4′H-spiro[cyclopropane-1,8′-pyrrolo[1,2-a]pyrazine]-6′-carboxamide trifluoroacetate]	< 500 nM	500 to 2500 nM

— US20250122225A1, “MASP-2 INHIBITORS AND METHODS OF USE” (Omeros Corporation, priority 2023, published 2025)
